PubChem BioAssay AID1919016 (Molecular Pharmacology Branch, DTP, NCI, 2023)
Where “and” joins values, the source holds several entries; their conditions need not be identical. Identical values can stand only once.

Test system: NCI-H196 complex spheroid growth, percent test/control
Assay: Anticancer human tumor NCI-H196 cell line growth inhibition [AhR];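 further: seven days of drug exposure starting three days after plating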;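 on viability, T/C: 100% = DMSO vehicle control wells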
Conditions: for viability, T/C: stronger effect = lower value
Outline: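 Complex tumor spheroids co-cultured with HUVEC and human MSC stroma; AhR antagonists tested in combination with standard-of-care and investigational agents. Top concentration at or near clinical Cmax (else 10 microM), half-log dilutions; growth expressed as percent test/control.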

Compound: Nc1ccn(C2OC(CO)C(O)C2(F)F)c(=O)n1 (centres undefined) + Cc1cncc(-c2nc(NCCc3c[nH]c4ccccc34)c3ncn(C(C)C)c3n2)c1
- IC50 (curve of first compound, second compound 0.1 µM): 377 nM
- IC50 (curve of first compound, second compound 0.316 µM): 620 nM
- IC50 (curve of first compound, second compound 1 µM): 811 nM
- IC50 (curve of first compound, second compound 3.16 µM): 289 nM
- IC50 (curve of first compound, second compound 10 µM): > 10000 nM
- viability, T/C (second compound 0.1 µM, first compound 0.0316 µM): 71.4%
- viability, T/C (second compound 0.1 µM, first compound 0.1 µM): 60.1%
- viability, T/C (second compound 0.1 µM, first compound 0.316 µM): 50.4%
- viability, T/C (second compound 0.1 µM, first compound 1 µM): 48.8%
- viability, T/C (second compound 0.1 µM, first compound 3.16 µM): 43.4%
- viability, T/C (second compound 0.1 µM, first compound 10 µM): 52%
- viability, T/C (second compound 0.316 µM, first compound 0.0316 µM): 83.1%
- viability, T/C (second compound 0.316 µM, first compound 0.1 µM): 62.8%
- viability, T/C (second compound 0.316 µM, first compound 0.316 µM): 51.4%
- viability, T/C (second compound 0.316 µM, first compound 1 µM): 47.3%
- viability, T/C (second compound 0.316 µM, first compound 3.16 µM): 51.3%
- viability, T/C (second compound 0.316 µM, first compound 10 µM): 43.8%
- viability, T/C (second compound 1 µM, first compound 0.0316 µM): 71.5%
- viability, T/C (second compound 1 µM, first compound 0.1 µM): 60.7%
- viability, T/C (second compound 1 µM, first compound 0.316 µM): 49.5%
- viability, T/C (second compound 1 µM, first compound 1 µM): 54.3%
- viability, T/C (second compound 1 µM, first compound 3.16 µM): 45.5%
- viability, T/C (second compound 1 µM, first compound 10 µM): 46.7%
- viability, T/C (second compound 3.16 µM, first compound 0.0316 µM): 81.3%
- viability, T/C (second compound 3.16 µM, first compound 0.1 µM): 70.6%
- viability, T/C (second compound 3.16 µM, first compound 0.316 µM): 48.3%
- viability, T/C (second compound 3.16 µM, first compound 1 µM): 45.2%
- viability, T/C (second compound 3.16 µM, first compound 3.16 µM): 47.8%
- viability, T/C (second compound 3.16 µM, first compound 10 µM): 45.3%
- viability, T/C (second compound 10 µM, first compound 0.0316 µM): 76.6%
- viability, T/C (second compound 10 µM, first compound 0.1 µM): 88.1%
- viability, T/C (second compound 10 µM, first compound 0.316 µM): 78%
- viability, T/C (second compound 10 µM, first compound 1 µM): 53.1%
- viability, T/C (second compound 10 µM, first compound 3.16 µM): 54.8%
- viability, T/C (second compound 10 µM, first compound 10 µM): 57.1%

Compound: CC[C@@]1(O)C(=O)OCc2c1cc1n(c2=O)Cc2cc3c(CN(C)C)c(O)ccc3nc2-1
- viability, T/C (compound 0.000316 µM): 105% and 99.9% and 103%
- viability, T/C (compound 0.001 µM): 110% and 104% and 107%
- viability, T/C (compound 0.00316 µM): 89.1% and 98% and 101%
- viability, T/C (compound 0.01 µM): 101% and 94% and 103%
- viability, T/C (compound 0.0316 µM): 116% and 105% and 106%
- viability, T/C (compound 0.1 µM): 108% and 101% and 104%
- IC50 (curve of compound): > 100 nM

Compound: Nc1ncn(C2CC(O)C(CO)S2)c(=O)n1 (centres undefined)
- viability, T/C (compound 0.000949 µM): 92.7% and 99.1% and 95.1%
- viability, T/C (compound 0.003 µM): 107% and 97.7% and 97.9%
- viability, T/C (compound 0.00949 µM): 109% (2×) and 117%
- viability, T/C (compound 0.03 µM): 109% and 104% and 105%
- viability, T/C (compound 0.0949 µM): 118% and 110% and 107%
- viability, T/C (compound 0.3 µM): 119% and 96.8% and 117%
- IC50 (curve of compound): > 300 nM
